# Data from PMC10819888, “Benzimidazole-Based Derivatives as Apoptotic Antiproliferative Agents: Design, Synthesis, Docking, and Mechanistic Studies” (Molecules, 2024).
# Columns and labels:
# Test in all cases: NCI-60 one-dose assay
# Assay type in all cases: cell-based
# SK-MEL-28 = settings: Homo sapiens, SK-MEL-28 (Melanoma), read-out: Cell Inhibition Percent
# COLO 205 = settings: Homo sapiens, COLO 205 (Colon Cancer), read-out: Cell Inhibition Percent
# U251 = settings: Homo sapiens, U-251, U251 (CNS cancer), read-out: Cell Inhibition Percent
# MDA-MB 231 = settings: Homo sapiens, MDA-MB 231 (Breast Cancer), read-out: Cell Inhibition Percent
# SF-539 = settings: Homo sapiens, SF-539 (CNS cancer), read-out: Cell Inhibition Percent
# OVCAR-8 = settings: Homo sapiens, OVCAR-8 (ovarian cancer), read-out: Cell Inhibition Percent
# SK-MEL-5 = settings: Homo sapiens, SK-MEL-5 (Melanoma), read-out: Cell Inhibition Percent
# MOLT-4 = settings: Homo sapiens, MOLT-4 (Leukemia), read-out: Cell Inhibition Percent
# NCI-H226 = settings: Homo sapiens, NCI-H226 (Non-Small Cell Lung Cancer), read-out: Cell Inhibition Percent
# EKVX = settings: Homo sapiens, EKVX (Non-Small Cell Lung Cancer), read-out: Cell Inhibition Percent
# SNB-75 = settings: Homo sapiens, SNB-75 (CNS cancer), read-out: Cell Inhibition Percent
# PC-3 = settings: Homo sapiens, PC-3 (Prostate Cancer), read-out: Cell Inhibition Percent
# SNB-19 = settings: Homo sapiens, SNB-19 (CNS cancer), read-out: Cell Inhibition Percent
# TK-10 = settings: Homo sapiens, TK-10 (Renal Cancer), read-out: Cell Inhibition Percent
# OVCAR-3 = settings: Homo sapiens, OVCAR-3 (ovarian cancer), read-out: Cell Inhibition Percent
# A549/ATCC = settings: Homo sapiens, A549/ATCC (Non-Small Cell Lung Cancer), read-out: Cell Inhibition Percent
# SW-620 = settings: Homo sapiens, SW-620 (Colon Cancer), read-out: Cell Inhibition Percent
# SF-295 = settings: Homo sapiens, SF-295 (CNS cancer), read-out: Cell Inhibition Percent
# NCI/ADR-RES = settings: Homo sapiens, NCI/ADR-RES (ovarian cancer), read-out: Cell Inhibition Percent
# SK-MEL-2 = settings: Homo sapiens, SK-MEL-2 (Melanoma), read-out: Cell Inhibition Percent
# SF-268 = settings: Homo sapiens, SF-268 (CNS cancer), read-out: Cell Inhibition Percent
# RXF 393 = settings: Homo sapiens, RXF 393 (Renal Cancer), read-out: Cell Inhibition Percent
# IGROV1 = settings: Homo sapiens, IGROV-1, IGROV1 (ovarian cancer), read-out: Cell Inhibition Percent
# HT29 = settings: Homo sapiens, HT-29, HT29 (Colon Cancer), read-out: Cell Inhibition Percent
# MALME-3M = settings: Homo sapiens, MALME-3M (Melanoma), read-out: Cell Inhibition Percent
# UACC-257 = settings: Homo sapiens, UACC-257 (Melanoma), read-out: Cell Inhibition Percent
# NCI-H23 = settings: Homo sapiens, NCI-H23 (Non-Small Cell Lung Cancer), read-out: Cell Inhibition Percent
# CCRF-CEM = settings: Homo sapiens, CCRF-CEM (Leukemia), read-out: Cell Inhibition Percent
# MCF7 = settings: Homo sapiens, MCF7 (Breast Cancer), read-out: Cell Inhibition Percent
Compound,inhibition at 10 µM (SK-MEL-28) [%],inhibition at 10 µM (COLO 205) [%],inhibition at 10 µM (U251) [%],inhibition at 10 µM (MDA-MB 231) [%],inhibition at 10 µM (SF-539) [%],inhibition at 10 µM (OVCAR-8) [%],inhibition at 10 µM (SK-MEL-5) [%],inhibition at 10 µM (MOLT-4) [%],inhibition at 10 µM (NCI-H226) [%],inhibition at 10 µM (EKVX) [%],inhibition at 10 µM (SNB-75) [%],inhibition at 10 µM (PC-3) [%],inhibition at 10 µM (SNB-19) [%],inhibition at 10 µM (TK-10) [%],inhibition at 10 µM (OVCAR-3) [%],inhibition at 10 µM (A549/ATCC) [%],inhibition at 10 µM (SW-620) [%],inhibition at 10 µM (SF-295) [%],inhibition at 10 µM (NCI/ADR-RES) [%],inhibition at 10 µM (SK-MEL-2) [%],also measured
"O=C(NN=Cc1ccccc1)c1ccc2[nH]c(-c3ccc(Cl)cc3)nc2c1 [Compound 4a, N′-Benzylidene-2-(4-chlorophenyl)-1H-benzimidazole-5-carbohydrazide]",0,0.76,4.35,0,9.57,1.37,4.85,12.9,5.74,1.38,10.7,0,0,0,0,0,0,13.2,0,0,inhibition at 10 µM (SF-268): 0%; inhibition at 10 µM (RXF 393): 15.5%; inhibition at 10 µM (IGROV1): 4.8%; inhibition at 10 µM (HT29): 3.67%; inhibition at 10 µM (MALME-3M): 1.28%; inhibition at 10 µM (UACC-257): 0%; inhibition at 10 µM (NCI-H23): 1.85%; inhibition at 10 µM (CCRF-CEM): 11.2%; inhibition at 10 µM (MCF7): 23.5%
"O=C(N/N=C/c1ccc(O)cc1)c1ccc2[nH]c(-c3ccc(Cl)cc3)nc2c1 [Compound 4i, N′-(4-Hydroxybenzylidene)-2-(4-chlorophenyl)-1H-benzimidazole-5-carbohydrazide]",0,0.44,0,2.75,1.95,0,4.32,15.6,20.6,0,0,0,0,0,0,0,0,0,0,0,inhibition at 10 µM (SF-268): 13.7%; inhibition at 10 µM (RXF 393): 0%; inhibition at 10 µM (IGROV1): 17%; inhibition at 10 µM (HT29): 0%; inhibition at 10 µM (MALME-3M): 21.4%; inhibition at 10 µM (UACC-257): 0%; inhibition at 10 µM (NCI-H23): 4.44%; inhibition at 10 µM (CCRF-CEM): 13.6%; inhibition at 10 µM (MCF7): 25.1%
"CCn1c(-c2ccc3[nH]c(-c4ccc(Cl)cc4)nc3c2)n[nH]c1=S [Compound 6, 4-ethyl-5-(2-(4-chlorophenyl)-1H-benzimidazol-5-yl)-2,4-dihydro-3H-1,2,4triazole-3-thione]",0,0,0,2.36,3.69,0,2.04,2.85,1.97,0.44,3.91,7.76,0,0,0,0,0,0.56,0,0,inhibition at 10 µM (SF-268): 1.04%; inhibition at 10 µM (RXF 393): 13.9%; inhibition at 10 µM (IGROV1): 0.16%; inhibition at 10 µM (HT29): 2.07%; inhibition at 10 µM (MALME-3M): 2.41%; inhibition at 10 µM (UACC-257): 0%; inhibition at 10 µM (NCI-H23): 4.53%; inhibition at 10 µM (CCRF-CEM): 0%; inhibition at 10 µM (MCF7): 14.6%
"O=C(NN=Cc1ccc(F)cc1)c1ccc2[nH]c(-c3ccc(Cl)cc3)nc2c1 [Compound 4d, N′-(4-Fluorobenzylidene)-2-(4-chlorophenyl)-1H-benzimidazole-5-carbohydrazide]",28.1,58.7,98.4,36.1,12,48.7,11,76.5,6.86,26.8,2.77,53.2,39.6,5.63,29.3,82.2,53.7,68.7,23,16.7,inhibition at 10 µM (SF-268): 21.8%; inhibition at 10 µM (RXF 393): 22.6%; inhibition at 10 µM (IGROV1): 59.8%; inhibition at 10 µM (HT29): 95.7%; inhibition at 10 µM (MALME-3M): 88.2%; inhibition at 10 µM (UACC-257): 0%; inhibition at 10 µM (NCI-H23): 38.6%; inhibition at 10 µM (CCRF-CEM): 78.6%; inhibition at 10 µM (MCF7): 82.6%
